In patent US20230322753A1, “HETEROARYL DERIVATIVE, METHOD FOR PREPARATION THEREOF, AND PHARMACEUTICAL COMPOSITION COMPRISING SAME AS ACTIVE INGREDIENT” (VORONOI INC., priority 2020, published 2023) one finds GI50 data, which are given here for 45 compounds.

Usually GI50 stands for the concentration giving 50% growth inhibition.

Type in all cases: cell-based
Holding throughout (settings): Mus musculus, BaF3, 72 hours, CellTiter-Glo

The subject of assay [1] is Ba/F3 cells expressing EGFR Exon20 ins NPH. Description: Ba/F3 proliferation suppression activity, cells expressing EGFR Exon20 ins NPH. How it is done:
A following experiment was carried out to evaluate the suppression activity of the compounds according to the present invention against the proliferation of Ba/F3 which expresses EGFR mutations.
(§1) For the Ba/F3 cells, a RPMI-1640 medium containing 10% FBS and 5 ng/ml IL-3 (R&D Systems) was used. The transduced Ba/F3 cells were cultured in a medium, which is same as the above medium, but 1 ug/ml puromycin (Invitrogen) was additionally added to.
(§2) 24 hours before the treatment of the cells with the compounds, 3000 to 5000 cells were distributed into each well of a white clear bottom 96 well plate (Corning). The compounds were diluted in a dimethyl sulfoxide (e.g. dilution ratio of 3:1 and total 12 concentrations) and then injected by 0.5 ul respectively, such that a final concentration amounted to 0.3 nM to 50 uM. 72 hours after the treatment with the compounds, the measurement of live cells was made in such way that these cells were stored for 10 minutes at a room temperature using a CellTiter-Glo luminescent cell-viability reagent (Promega) and then their luminescence intensities were measured using a reader (i.e. Synergy Neo, Biotek). Each test was repeated three times.
(§3) resulting values were calculated as a cell growth ratio (%) compared to a control. Then, the graphs were drawn and the […] values were calculated by using a program, GraphPad Prism version 5.0.

The test system of assay [2] is Ba/F3 cells expressing HER2 YVMA Exon 20ins. Briefly: Ba/F3 proliferation suppression activity, cells expressing HER2 YVMA Exon 20ins. On the procedure:
as §1, §2, §3

For assay [3], the system named is Ba/F3 cells expressing HER2 WT. Briefly: Ba/F3 proliferation suppression activity, cells expressing ErbB2 (HER2) wild type. How it is done: as §1, §2, §3

Some results are limits rather than exact numbers.

For the compound `C=CC(=O)Nc1cc(Nc2cc(N3OCC[C@@H]3c3cc(F)cc(C(F)(F)F)c3)ncn2)c(OC)cc1N1CCC(N2CCN(C3CC3)CC2)CC1` [Compound 1], the GI50 in assay [1] is below 50 nM; in assay [2], 50 to 500 nM.
Regarding `C=CC(=O)Nc1cc(Nc2cc(N3OCC[C@@H]3c3ccc(F)c(C(F)(F)F)c3)ncn2)c(OC)cc1N1CCC(N2CCN(C3CC3)[C@@H](C)C2)CC1` [Compound 52], the GI50 in assay [1], in assay [3] and in assay [2] was below 50 nM in each case.
For `C=CC(=O)Nc1cc(Nc2cc(N3OCC[C@@H]3c3ccc(F)c(C(F)(F)F)c3)ncn2)c(OC)cc1N1CCN(C)CC1` [Compound 37], the 50% growth inhibitory concentration (GI50) in assay [1] and in assay [2] was below 50 nM throughout.
Take `C=CC(=O)Nc1cc(Nc2cc(N3OCC[C@@H]3c3cccc(C(F)(F)F)c3F)ncn2)c(OC)cc1N(C)CCN(C)C` [Compound 61]: the concentration for 50% growth inhibition (GI50) in assay [1] and in assay [2] was below 50 nM in each case.
On to `C=CCN1CCN(c2cc(OC)c(Nc3cc(N4OCC[C@@H]4c4ccc(F)c(C(F)(F)F)c4)ncn3)cc2NC(=O)C=C)CC1` [Compound 41], for which the 50% growth inhibitory concentration (GI50) in assay [1], in assay [3] and in assay [2] was below 50 nM throughout.
As for `C=CC(=O)Nc1cc(Nc2cc(N3OCC[C@@H]3c3cccc(C(F)(F)F)c3F)ncn2)c(OC)cc1N1CCC(N2CCN(C3COC3)CC2)CC1` [Compound 84], in assay [1], the concentration for 50% growth inhibition (GI50) is below 50 nM.
As to `C=CC(=O)Nc1cc(Nc2cc(N3OCC[C@@H]3c3cc(F)cc(C(F)(F)F)c3)ncn2)c(OC)cc1N1CCC(N(CC)CC)CC1` [Compound 16], the GI50 in assay [1] was below 50 nM.
In the case of `C=CC(=O)Nc1cc(Nc2cc(N3OCC[C@@H]3c3cccc(C(F)(F)F)c3F)ncn2)c(OC)cc1N1CCC(N2CCN(C3CC3)C(C)(C)C2)CC1` [Compound 83], the GI50 in assay [1] is 50 to 500 nM.
On to `C=CC(=O)Nc1cc(Nc2cc(N3OCC[C@@H]3c3cccc(C(F)(F)F)c3F)ncn2)c(OC)cc1N1CCC(N2CCN(C3CC3)CC2)CC1` [Compound 62], for which the GI50 in assay [1] and in assay [2] was below 50 nM in each case.
`C=CC(=O)Nc1cc(Nc2cc(N3OCC[C@@H]3c3cccc(C(F)(F)F)c3)ncn2)ccc1N1CCN(C)CC1` [Compound 31]: in assay [1], the GI50 was 50 to 500 nM.
As to `C=CC(=O)Nc1cc(Nc2cc(N3OCC[C@@H]3c3cccc(C(F)(F)F)c3F)ncn2)c(OC)cc1N1CCC(N2C[C@H]3C[C@@H]2CO3)CC1` [Compound 89], the GI50 in assay [1] was below 50 nM.
Still for that read-out and setting: the value for `C=CC(=O)Nc1cc(Nc2cc(N3OCC[C@@H]3c3cc(F)cc(C(F)(F)F)c3)ncn2)c(OC)cc1N1CCN(C2CC2)CC1` [Compound 2] was 50 to 500 nM; that for `C=CC(=O)Nc1cc(Nc2cc(N3OCC[C@@H]3c3cc(F)cc(C(F)(F)F)c3)ncn2)c(OC)cc1N1CCN(C)CC1` [Compound 3] was 50 to 500 nM; that for `C=CCN1CCN(c2cc(OC)c(Nc3cc(N4OCC[C@@H]4c4cccc(C(F)(F)F)c4F)ncn3)cc2NC(=O)C=C)CC1` [Compound 94] was below 50 nM.
As to `C=CC(=O)Nc1cc(Nc2cc(N3OCC[C@@H]3c3cccc(C(F)(F)F)c3F)ncn2)c(OC)cc1N1CCO[C@@H](C)C1` [Compound 75], the GI50 in assay [1] was in the range of 50 to 500 nM.
`C=CC(=O)Nc1cc(Nc2cc(N3OCC[C@@H]3c3cc(F)cc(C(F)(F)F)c3)ncn2)c(OC)cc1N1CCN(C2CC2)[C@@H](C)C1` [Compound 6]: the 50% growth inhibitory concentration (GI50) in assay [1] lay within 50 to 500 nM.
With `C=CC(=O)Nc1cc(Nc2cc(N3OCC[C@@H]3c3cccc(C(F)(F)F)c3)ncn2)c(OC)cc1N1CCCN(C2CC2)CC1` [Compound 29], the GI50 in assay [1] was in the range of 50 to 500 nM.
Turning to `C=CC(=O)Nc1cc(Nc2cc(N3OCC[C@@H]3c3cccc(C(F)(F)F)c3)ncn2)c(OC)cc1N1CCN(C)[C@@H](C)C1` [Compound 7], in assay [1], the GI50 is below 50 nM.
For `C=CC(=O)Nc1cc(Nc2cc(N3OCC[C@@H]3c3cccc(C(F)(F)F)c3)ncn2)c(OC)cc1N1CCN(C)[C@H](C)C1` [Compound 8], in assay [1], the GI50 was below 50 nM.
`C=CC(=O)Nc1cc(Nc2cc(N3OCC[C@@H]3c3cc(F)cc(C(F)(F)F)c3)ncn2)c(OC)cc1N1CCN(CC)CC1` [Compound 4]: the GI50 in assay [1] is below 50 nM.
In the case of `C=CC(=O)Nc1cc(Nc2cc(N3OCC[C@@H]3c3ccc(F)c(C(F)(F)F)c3)ncn2)c(OC)cc1N1CCC(N2CCOCC2)CC1` [Compound 64], the GI50 in assay [1] is below 50 nM.
As to `C=CC(=O)Nc1cc(Nc2cc(N3OCC[C@@H]3c3ccc(F)c(C(F)(F)F)c3)ncn2)c(OC)cc1N1CCC(N2CCO[C@H](C)C2)CC1` [Compound 59], the GI50 in assay [1] is below 50 nM.
As to `C=CC(=O)Nc1cc(Nc2cc(N3OCC[C@@H]3c3cccc(C(F)(F)F)c3F)ncn2)c(OC)cc1N1CCC[C@@H]1CN1CCC1` [Compound 72], the GI50 in assay [1] was 50 to 500 nM.
Consider `C=CC(=O)Nc1cc(Nc2cc(N3OCC[C@@H]3c3ccc(F)c(C(F)(F)F)c3)ncn2)c(OC)cc1N1CCC(N2CCO[C@@H](C)C2)CC1` [Compound 58], for which the GI50 in assay [1] and in assay [2] was below 50 nM each time.
`C=CC(=O)Nc1cc(Nc2cc(N3OCC[C@@H]3c3cccc(C(F)(F)F)c3F)ncn2)c(OC)cc1N1CCN(C)[C@@H](C)C1` [Compound 76]: the GI50 in assay [1] is below 50 nM.
In the case of `C=CC(=O)Nc1cc(Nc2cc(N3OCC[C@@H]3c3ccc(F)c(C(F)(F)F)c3)ncn2)c(OC)cc1N1CCC(N2CCN(C3CC3)[C@H](C)C2)CC1` [Compound 53], the GI50 in assay [1] and in assay [2] was below 50 nM in each case.
Take `C=CC(=O)Nc1cc(Nc2cc(N3OCC[C@@H]3c3ccc(F)c(C(F)(F)F)c3)ncn2)c(OC)cc1N(C)CCN(C)C` [Compound 36]: in assay [1], the 50% growth inhibitory concentration (GI50) was below 50 nM.
As for `C=CC(=O)Nc1cc(Nc2cc(N3OCC[C@@H]3c3ccc(F)c(C(F)(F)F)c3)ncn2)c(OC)cc1N1CCC(N2CCN(C3CC3)CC2)CC1` [Compound 49], in assay [1], the 50% growth inhibitory concentration (GI50) is below 50 nM.
On to `C=CC(=O)Nc1cc(Nc2cc(N3OCC[C@@H]3c3cc(F)cc(F)c3)ccn2)c(OC)cc1N(C)CCN(C)C` [Compound 99], for which the GI50 in assay [1] fell in the range of 50 to 500 nM.
Same read-out and setting: the value for `C=CC(=O)Nc1cc(Nc2cc(N3OCC[C@@H]3c3cccc(C(F)(F)F)c3F)ncn2)c(OC)cc1OCCN(C)C` [Compound 70] was below 50 nM.
In the case of `C=CC(=O)Nc1cc(Nc2cc(N3OCC[C@@H]3c3ccc(F)c(C(F)(F)F)c3)ncn2)c(OC)cc1N1CCN(CCC)CC1` [Compound 55], the GI50 in assay [1], in assay [3] and in assay [2] was below 50 nM in each case.
Take `C=CC(=O)Nc1cc(Nc2cc(N3OCC[C@@H]3c3cccc(C(F)(F)F)c3F)ncn2)c(OC)cc1N1CCC(N2CCN(C(C)=O)CC2)CC1` [Compound 91]: the 50% growth inhibitory concentration (GI50) in assay [1] is 50 to 500 nM.
The same measure, in the same setting: the value for `C=CC(=O)Nc1cc(Nc2cc(N3OCC[C@@H]3c3cccc(C(F)(F)F)c3F)ncn2)c(OC)cc1N1CCN(C2COC2)CC1` [Compound 69] was below 50 nM; that for `C=CC(=O)Nc1cc(Nc2cc(N3OCC[C@@H]3c3cccc(C(F)(F)F)c3)ncn2)c(OC)cc1N1CCC(N2CCC(N3CCN(C)CC3)CC2)CC1` [Compound 14] was 50 to 500 nM.
As to `C=CC(=O)Nc1cc(Nc2cc(N3OCC[C@@H]3c3cccc(C(F)(F)F)c3)ncn2)c(OC)cc1N1CCC(N(CC)CC)CC1` [Compound 20], the 50% growth inhibitory concentration (GI50) in assay [1] was below 50 nM.
Consider `C=CC(=O)Nc1cc(Nc2cc(N3OCC[C@@H]3c3ccc(Cl)c(C(F)(F)F)c3)ncn2)c(OC)cc1N1CCN(C)CC1` [Compound 32], for which the 50% growth inhibitory concentration (GI50) in assay [1] is 50 to 500 nM.
Still for that read-out and setting: as for `C=CC(=O)Nc1cc(Nc2cc(N3OCC[C@@H]3c3cc(F)cc(F)c3)ncn2)c(OC)cc1SCCN(C)C` [Compound 101], the figure is below 50 nM; as for `C=CC(=O)Nc1cc(Nc2cc(N3OCC[C@@H]3c3cccc(C(F)(F)F)c3F)ncn2)c(OC)cc1N1CCC(N2C[C@@H](C)O[C@@H](C)C2)CC1` [Compound 73], below 50 nM; as for `C=CC(=O)Nc1cc(Nc2cc(N3OCC[C@@H]3c3ccc(F)c(C(F)(F)F)c3)ncn2)c(OC)cc1N1CCCN(C)CC1` [Compound 40], below 50 nM.
The same measure, in the same setting: as for `C=CC(=O)Nc1cc(Nc2cc(N3OCC[C@@H]3c3cccc(C(F)(F)F)c3F)ncn2)c(OC)cc1N1CCN(CCC)CC1` [Compound 93], the figure is below 50 nM.
Consider `C=CC(=O)Nc1cc(Nc2cc(N3OCC[C@@H]3c3ccc(Cl)c(C(F)(F)F)c3)ncn2)c(OC)cc1N1CCC(N2CCN(C3CC3)CC2)CC1` [Compound 34], for which the GI50 in assay [1] fell in the range of 50 to 500 nM.
`C=CC(=O)Nc1cc(Nc2cc(N3OCC[C@@H]3c3ccc(F)c(C(F)(F)F)c3)ncn2)c(OC)cc1N1CCN(CC2CC2)CC1` [Compound 42]: the GI50 in assay [1] was below 50 nM.
For `C=CC(=O)Nc1cc(Nc2cc(N3OCC[C@@H]3c3cccc(C(F)(F)F)c3F)ncn2)c(OC)cc1N1CCOCC1` [Compound 65], the GI50 in assay [1] was 50 to 500 nM.
Regarding `C=CC(=O)Nc1cc(Nc2cc(N3OCC[C@@H]3c3ccc(F)c(C(F)(F)F)c3)ncn2)c(OC)cc1N1CCO[C@@H](C)C1` [Compound 56], the 50% growth inhibitory concentration (GI50) in assay [1] was in the range of 50 to 500 nM.
In the case of `C=CC(=O)Nc1cc(Nc2cc(N3OCC[C@@H]3c3cccc(C(F)(F)F)c3F)ncn2)c(OC)cc1N1CCN(C)CC1` [Compound 60], the concentration for 50% growth inhibition (GI50) in assay [1] and in assay [2] was below 50 nM in each case.
